The NIST ThermoML archive (doi:10.1016/j.jct.2015.08.031)
Where “and” joins values, the source holds several entries; their conditions need not be identical. Identical values can stand only once. Numbers after ± are expanded uncertainties.

Experiment: molar heat capacity at constant pressure
Details: 101.33 kPa, Crystal, relaxation calorimetry

O[C@H]1[C@H](O)[C@H](O)OC[C@H]1O [β-D-arabinopyranose]
Details	molar heat capacity at constant pressure
0.5 K	0.0007532 ± 8.2e-05 J/K/mol
1 K	0.00191 ± 0.00016 J/K/mol
1.5 K	0.0039 ± 0.0003 J/K/mol
1.93 K	0.00664 ± 0.00052 J/K/mol
2 K	0.007206 ± 0.00053 J/K/mol
2.03 K	0.00744 ± 0.00058 J/K/mol
2.14 K	0.00853 ± 0.00066 J/K/mol
2.26 K	0.00959 ± 0.00073 J/K/mol
2.38 K	0.01108 ± 0.00083 J/K/mol
2.5 K	0.01239 ± 0.0009 J/K/mol
2.51 K	0.01247 ± 0.00092 J/K/mol
2.64 K	0.01457 ± 0.0011 J/K/mol
2.78 K	0.01653 ± 0.0012 J/K/mol
2.94 K	0.01919 ± 0.0014 J/K/mol
3 K	0.02013 ± 0.0015 J/K/mol
3.1 K	0.02195 ± 0.0016 J/K/mol
3.27 K	0.02605 ± 0.0019 J/K/mol
3.43 K	0.02956 ± 0.0021 J/K/mol
3.5 K	0.03122 ± 0.0022 J/K/mol
3.63 K	0.03481 ± 0.0025 J/K/mol
3.81 K	0.03999 ± 0.0029 J/K/mol
4 K	0.04664 ± 0.0033 J/K/mol
4.03 K	0.04762 ± 0.0034 J/K/mol
4.23 K	0.05477 ± 0.0039 J/K/mol
4.47 K	0.06546 ± 0.0047 J/K/mol
4.5 K	0.06755 ± 0.0048 J/K/mol
4.7 K	0.07779 ± 0.0056 J/K/mol
4.96 K	0.09273 ± 0.0066 J/K/mol
5 K	0.09528 ± 0.0068 J/K/mol
5.22 K	0.109 ± 0.0077 J/K/mol
5.5 K	0.1311 ± 0.0093 J/K/mol and 0.1314 ± 0.0093 J/K/mol
5.79 K	0.157 ± 0.011 J/K/mol
6 K	0.1776 ± 0.013 J/K/mol
6.1 K	0.19 ± 0.013 J/K/mol
6.42 K	0.2256 ± 0.016 J/K/mol
6.5 K	0.2359 ± 0.017 J/K/mol
6.77 K	0.2719 ± 0.019 J/K/mol
7 K	0.308 ± 0.022 J/K/mol
7.12 K	0.328 ± 0.023 J/K/mol
7.5 K	0.396 ± 0.028 J/K/mol
7.51 K	0.3961 ± 0.028 J/K/mol
7.9 K	0.4794 ± 0.034 J/K/mol
8 K	0.5015 ± 0.035 J/K/mol
8.33 K	0.5808 ± 0.041 J/K/mol
8.5 K	0.6256 ± 0.044 J/K/mol
8.76 K	0.6949 ± 0.049 J/K/mol
9 K	0.7669 ± 0.054 J/K/mol
9.24 K	0.8445 ± 0.059 J/K/mol
9.5 K	0.9266 ± 0.065 J/K/mol
9.72 K	1.004 ± 0.07 J/K/mol
10 K	1.105 ± 0.077 J/K/mol
10.23 K	1.191 ± 0.083 J/K/mol
10.77 K	1.405 ± 0.098 J/K/mol
11 K	1.517 ± 0.11 J/K/mol
11.32 K	1.667 ± 0.12 J/K/mol
11.92 K	1.965 ± 0.14 J/K/mol
12 K	2 ± 0.14 J/K/mol
12.56 K	2.311 ± 0.16 J/K/mol
13 K	2.549 ± 0.18 J/K/mol
13.23 K	2.685 ± 0.19 J/K/mol
13.94 K	3.128 ± 0.22 J/K/mol
14 K	3.158 ± 0.22 J/K/mol
14.68 K	3.61 ± 0.25 J/K/mol
15 K	3.821 ± 0.27 J/K/mol
15.46 K	4.149 ± 0.29 J/K/mol
16 K	4.53 ± 0.32 J/K/mol
16.31 K	4.747 ± 0.33 J/K/mol
17 K	5.279 ± 0.37 J/K/mol
17.15 K	5.4 ± 0.38 J/K/mol
18 K	6.059 ± 0.42 J/K/mol
18.08 K	6.128 ± 0.43 J/K/mol
19 K	6.866 ± 0.48 J/K/mol
19.05 K	6.89 ± 0.48 J/K/mol
20 K	7.693 ± 0.54 J/K/mol
20.08 K	7.769 ± 0.32 J/K/mol
21.14 K	8.663 ± 0.35 J/K/mol
22.3 K	9.532 ± 0.39 J/K/mol
23.47 K	10.62 ± 0.43 J/K/mol
24.74 K	11.68 ± 0.47 J/K/mol
25 K	11.98 ± 0.49 J/K/mol
26.04 K	12.89 ± 0.52 J/K/mol
27.46 K	14.03 ± 0.57 J/K/mol
28.89 K	15.45 ± 0.63 J/K/mol
30 K	16.33 ± 0.66 J/K/mol
30.43 K	16.8 ± 0.68 J/K/mol
32.08 K	18.29 ± 0.74 J/K/mol
33.81 K	19.73 ± 0.8 J/K/mol
35 K	20.68 ± 0.84 J/K/mol
35.6 K	21.31 ± 0.87 J/K/mol
37.52 K	22.92 ± 0.93 J/K/mol
39.51 K	24.55 ± 1 J/K/mol
40 K	25.02 ± 1 J/K/mol
41.64 K	26.31 ± 1.1 J/K/mol
43.83 K	28.17 ± 1.1 J/K/mol
45 K	29.23 ± 1.2 J/K/mol
46.19 K	30 ± 1.2 J/K/mol
48.63 K	31.87 ± 1.3 J/K/mol
50 K	33.14 ± 1.3 J/K/mol
51.26 K	34.52 ± 1.4 J/K/mol
53.96 K	35.9 ± 1.5 J/K/mol
55 K	36.8 ± 1.5 J/K/mol
56.88 K	38.09 ± 1.5 J/K/mol
59.89 K	40.36 ± 1.6 J/K/mol
60 K	40.35 ± 1.6 J/K/mol
63.13 K	42.59 ± 1.7 J/K/mol
65 K	43.88 ± 1.8 J/K/mol
66.46 K	45.03 ± 1.8 J/K/mol
70 K	47.36 ± 1.9 J/K/mol
70.07 K	47.59 ± 1.9 J/K/mol
73.76 K	50.07 ± 2 J/K/mol
75 K	50.8 ± 2.1 J/K/mol
77.78 K	52.92 ± 2.1 J/K/mol
80 K	54.2 ± 2.2 J/K/mol
81.9 K	55.02 ± 2.2 J/K/mol
85 K	57.56 ± 2.3 J/K/mol
86.34 K	58.01 ± 2.4 J/K/mol
90 K	60.88 ± 2.5 J/K/mol
90.84 K	61.56 ± 2.5 J/K/mol
95 K	64.18 ± 2.6 J/K/mol
95.82 K	64.72 ± 2.6 J/K/mol
100 K	67.44 ± 2.7 J/K/mol
100.82 K	67.63 ± 2.7 J/K/mol
105.87 K	71.22 ± 2.9 J/K/mol
110 K	73.87 ± 3 J/K/mol
110.95 K	74.61 ± 3 J/K/mol
116.03 K	77.25 ± 3.1 J/K/mol
120 K	80.2 ± 3.3 J/K/mol
121.05 K	81.12 ± 3.3 J/K/mol
126.07 K	84.2 ± 3.4 J/K/mol
130 K	86.45 ± 3.5 J/K/mol
131.11 K	87.48 ± 3.6 J/K/mol
136.18 K	90.66 ± 3.7 J/K/mol
140 K	92.63 ± 3.8 J/K/mol
141.2 K	93.47 ± 3.8 J/K/mol
146.26 K	96.4 ± 3.9 J/K/mol
150 K	98.75 ± 4 J/K/mol
151.33 K	99.46 ± 4 J/K/mol
156.34 K	102.71 ± 4.2 J/K/mol
160 K	104.83 ± 4.3 J/K/mol
161.42 K	105.84 ± 4.3 J/K/mol
166.44 K	108.82 ± 4.4 J/K/mol
170 K	110.86 ± 4.5 J/K/mol
171.52 K	111.71 ± 4.5 J/K/mol
176.58 K	114.66 ± 4.7 J/K/mol
180 K	116.86 ± 4.8 J/K/mol
181.62 K	117.85 ± 4.8 J/K/mol
186.66 K	121.01 ± 4.9 J/K/mol
190 K	122.82 ± 5 J/K/mol
191.69 K	123.97 ± 5 J/K/mol
196.75 K	126.57 ± 5.1 J/K/mol
200 K	128.77 ± 5.2 J/K/mol
201.79 K	129.39 ± 5.3 J/K/mol
206.8 K	132.11 ± 5.4 J/K/mol
210 K	134.69 ± 5.5 J/K/mol
211.88 K	135.86 ± 5.5 J/K/mol
216.86 K	138.45 ± 5.6 J/K/mol
220 K	140.59 ± 5.7 J/K/mol
221.99 K	141.54 ± 5.8 J/K/mol
226.98 K	144.9 ± 5.9 J/K/mol
230 K	146.48 ± 6 J/K/mol
232.03 K	147.66 ± 6 J/K/mol
237.15 K	150.47 ± 6.1 J/K/mol
240 K	152.35 ± 6.2 J/K/mol
242.11 K	153.65 ± 6.2 J/K/mol
247.24 K	156.9 ± 6.4 J/K/mol
250 K	158.21 ± 6.4 J/K/mol
252.28 K	159.78 ± 6.5 J/K/mol
257.34 K	162.75 ± 6.6 J/K/mol
260 K	164.06 ± 6.7 J/K/mol
262.36 K	165.45 ± 6.7 J/K/mol
267.38 K	168.46 ± 6.8 J/K/mol
270 K	169.9 ± 6.9 J/K/mol
272.39 K	171.4 ± 7 J/K/mol
273.15 K	171.74 ± 7 J/K/mol
277.53 K	174.86 ± 7.1 J/K/mol
280 K	175.73 ± 7.1 J/K/mol
282.55 K	177.62 ± 7.2 J/K/mol
287.61 K	180.21 ± 7.3 J/K/mol
290 K	181.55 ± 7.4 J/K/mol
292.62 K	182.92 ± 7.4 J/K/mol
297.64 K	185.3 ± 7.5 J/K/mol
298.15 K	186.29 ± 7.6 J/K/mol
300 K	187.36 ± 7.6 J/K/mol
302.65 K	188.73 ± 7.7 J/K/mol
